These results are taken from publication PMC12216189 (Nature Communications, 2025).

For experiment [1], the system named is A. baumannii 19606. The experiment is described as follows: Bactericidal assay of kanamycin with/without HNP1, no preincubation. Format: cell-based, Acinetobacter baumannii. The conditions noted are these: 0–100 μg/ml, LB broth, 24 h.
Experiment [2] deals with A. baumannii 19606. The experiment can be described thus: Biofilm formation assay. Format: cell-based, Acinetobacter baumannii. The conditions noted are these: for Biofilm-enhancing activity of HNP1 mutants (CV staining): HNP1 Ala-scan mutants and analogs, Fig. 6F.
The next experiment relates to Shigella. The conditions noted are these: sub-lethal concentrations; ref [78]; cited from earlier work.
The next experiment relates to Staphylococcus. The conditions noted are these: ref [26]; cited from earlier work.
For experiment [3], the system named is A. baumannii 19606. The experiment is described as follows: Real colony count bactericidal assay in LB broth. Format: cell-based, Acinetobacter baumannii. The conditions noted are these: 4 μM.
Experiment [4] concerns S. aureus, P. aeruginosa, and A. baumannii. The conditions noted are these: various bacteria, including S. aureus, ref [24]–[26]; cited from earlier work.
The target in experiment [5] is Fam-A11K-HNP1 (fluorescently labeled synthetic human neutrophil peptide 1) (human). The experiment can be described thus: fluorescence polarisation.
Another experiment relates to drug-resistant bacteria. The conditions noted are these: ref [84]; cited from earlier work.
The subject of experiment [6] is A. baumannii 19606. The experiment can be described thus: Competitive inhibition by recombinant OmpA of HNP1-promoted biofilm formation. The conditions noted are these: 0–2 μM OmpA. Format: cell-based, Acinetobacter baumannii.

Ends that are not written are not given here.

In the case of `NC[C@H]1O[C@H](O[C@H]2[C@H](O)[C@@H](O[C@H]3O[C@H](CO)[C@@H](O)[C@H](N)[C@H]3O)[C@H](N)C[C@@H]2N)[C@H](O)[C@@H](O)[C@@H]1O` [Kanamycin], the “Kanamycin effect on bacterial growth and survival” value with A. baumannii 19606 [1] is “dose-dependently inhibited bacterial growth and survival”. For the molecule “AFTCHCRR-SCYSTEYSYGTCTVMGINHRFCCL (disulfide) [HD6]”, the “Effect on biofilm formation (CV staining)” value (from here on “Effect … (CV staining)”) with A. baumannii 19606 [2] (4 μM, A. baumannii 19606) was “slightly enhanced it”. As to “ATCYCRTGRCATRESLSGVCEISGRLYRLCCR (disulfide (positions not given here)) [HD5]”, the “Effect … (CV staining)” value in the experiment with A. baumannii 19606 [2] (4 μM, A. baumannii 19606) is given as “slightly enhanced it”. In addition, the “Shigella infection of epithelial cells and tissues” value with Shigella was “promotes, at sub-lethal concentrations, Shigella infection”. Regarding “HBD1: human β-defensin (DHYNCVSSGGQCLYSACPIFTKIQGTCYRGKAKCCK; ends and bridges not checked; cysteine pairing not given here; UniProt P60022 33-68, looked up)”, the “Effect … (CV staining)” value in the experiment with A. baumannii 19606 [2] (4 μM, A. baumannii 19606) is “inactive in promoting biofilm formation”. “HBD3: human β-defensin 3, cited only (GIINTLQKYYCRVRGGRCAVLSCLPKEEQIGKCSTRGRKCCRRKK; ends and bridges not checked; cysteine pairing not given here; UniProt P81534 23-67, looked up)”: in the experiment on Staphylococcus, the “Effect on biofilm formation” value is on record as “inhibitory against biofilm formation”.

On to I6A: HNP1 Ala-substitution mutant, for which the “Biofilm-enhancing activity of HNP1 mutants (CV staining)” value (“Biofilm-enhancing activity” for short) in the experiment on A. baumannii 19606 [2] is reported as “significant decrease in biofilm enhancement”. Consider I20A/L25A: HNP1 Ala-substitution mutant, for which, in the experiment with A. baumannii 19606 [2], the “Biofilm-enhancing activity” value is reported as “significant decrease in biofilm enhancement”. Regarding “LL37: human cathelicidin (LLGDFFRKSKEKIGKEFKRIVQRIKDFLRNLVPRTES; Antibacterial peptide LL-37; UniProt P49913 134-170, looked up)”, the “Effect … (CV staining)” value with A. baumannii 19606 [2] (4 μM, A. baumannii 19606) is “significantly inhibited biofilm formation”. The “Bacterial killing in LB broth” value in the experiment with A. baumannii 19606 [3] is listed as “killing of the bacteria even in the presence of LB broth”. Further, in experiment [4], the “Effect on biofilm formation” value is given as “inhibit biofilm formation by various bacteria”. “OmpA-ΔL1L2 (full-length OmpA with extracellular loops L1 and L2 deleted) (natural protein)”: the fold decrease of binding against full-length OmpA in [5] turned out to be 3 fold. In the case of R15A: HNP1 Ala-substitution mutant, the “Biofilm-enhancing activity” value with A. baumannii 19606 [2] is reported as “significant decrease in biofilm enhancement”. Still for that read-out and setting: the entry for T18A: HNP1 Ala-substitution mutant is “significant decrease in biofilm enhancement”.

With “TM-ΔL1L2 (transmembrane domain of OmpA with extracellular loops L1 and L2 deleted) (domain or fragment)”, the fold decrease of binding against the transmembrane domain of OmpA in experiment [5] came out at 3 fold. With “VCSCRLVFCRRTELRVGNCLIGGVSFTYCCTRV (disulfide (positions not given here)) [HNP4]”, the “Effect … (CV staining)” value in the experiment with A. baumannii 19606 [2] (0–32 μM, LB broth, 96-well plate, 24 h, 37 °C) was “largely inactive”; with A. baumannii 19606 [2] (4 μM, A. baumannii 19606) it was “inactive in promoting biofilm formation”. For “W26A-HNP1: dimerization-debilitating analog”, the “Biofilm-enhancing activity” value with A. baumannii 19606 [2] was “completely lost their biofilm-enhancing activity”. As to colistin, the “Potentiation of antibacterial activity of classic antibiotics” value with drug-resistant bacteria is recorded as “potentiate the antibacterial activity of classic antibiotics”.

B1: full-length recombinant OmpA (outer membrane protein A) of Acinetobacter baumannii ATCC 19606 (natural protein)
chain: GVTVTPLLLGYTFQDSQHNNGGKDGNLTNGPELQDDLFVGAALGIELTPWLGFEAEYNQVKGDVDGASAGAEYKQKQINGNFYVTSDLITKNYDSKIKPYVLLGAGHYKYDFDGVNRGTRGTSEEGTLGNAGVGAFWRLNDALSLRTEARATYNADEEFWNYTALAGLNVVLGGHLKPAAPVVEVAPVEPTPVAPQPQELTEDLNMELRVFFDTNKSNIKDQYKPEIAKVAEKLSEYPNATARIEGHTDNTGPRKLNERLSLARANSVKSALVNEYNVDASRLSTQGFAWDQPIADNKTKEGRAMNRRVFATITGSRTVVVQPGQEAAAPAAAQ
On to B1, for which the Kd – broadly, the constant that tells how readily two partners part at equilibrium – in [5] came out at 500 nM.

B2: OmpA: recombinant A. baumannii outer membrane protein A with His tag (protein)
chain: B1 chain
modifications: left off: His tag, end not stated, state not stated
For the molecule B2, in the experiment with A. baumannii 19606 [6] (8 μM HNP1), the “Effect of recombinant OmpA on HNP1-promoted biofilm formation” value was “dose-dependently inhibited biofilm formation promoted by HNP1”. The “Effect of recombinant OmpA on biofilm formation without HNP1” value with A. baumannii 19606 [6] (no HNP1) is recorded as “little effect on biofilm formation”.
